The source of these data is patent publication US8987195B2 (priority 2012, dated 2015).

Molecules are shown by their SMILES. Read-outs that look alike come from different tables or passages of the source.

One assay deals with HCV genotype 1b replicon. The assay can be described thus: HCV replicon assay, genotype 1b replicon EC50. The class given is cell-based, Hepatitis C virus. The note with it: genotype 1b replicon, read-out: EC50 [gt-1b]. Summed up: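 Stable neomycin phosphotransferase-encoding replicon cell lines, kept under G418 selection beforehand, were plated with a compound dilution series without G418 and incubated 24-48 hours. Replicon RNA was then quantified, or luciferase activity read. EC50 was calculated as percent of DMSO control by four-parameter fit.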
In general terms: A replicon is a self-replicating genome or part of one, used to study replication in cells.

The target in assay [1] is HCV NS3/4A protease genotype 1b (Hepatitis C virus genotype 1b, UniProt P26663). The assay can be described thus: HCV NS3/4A protease time-resolved fluorescence (TRF) assay, Ki against genotype 1b. Format: biochemical. The note with it: IC50 [gt-1b] (nM), NS3/4A genotype 1b, enzyme 0.2 nM. The procedure, abridged: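 Ki values come from IC50 fits corrected for substrate concentration and KM. The time-resolved fluorescence protease reaction used 25 nM peptide substrate, 2.5 h, room temperature, pH 7.5 HEPES buffer, after 30 min enzyme–inhibitor preincubation.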
Sequence of HCV NS3/4A protease genotype 1b (P26663 1027-1657): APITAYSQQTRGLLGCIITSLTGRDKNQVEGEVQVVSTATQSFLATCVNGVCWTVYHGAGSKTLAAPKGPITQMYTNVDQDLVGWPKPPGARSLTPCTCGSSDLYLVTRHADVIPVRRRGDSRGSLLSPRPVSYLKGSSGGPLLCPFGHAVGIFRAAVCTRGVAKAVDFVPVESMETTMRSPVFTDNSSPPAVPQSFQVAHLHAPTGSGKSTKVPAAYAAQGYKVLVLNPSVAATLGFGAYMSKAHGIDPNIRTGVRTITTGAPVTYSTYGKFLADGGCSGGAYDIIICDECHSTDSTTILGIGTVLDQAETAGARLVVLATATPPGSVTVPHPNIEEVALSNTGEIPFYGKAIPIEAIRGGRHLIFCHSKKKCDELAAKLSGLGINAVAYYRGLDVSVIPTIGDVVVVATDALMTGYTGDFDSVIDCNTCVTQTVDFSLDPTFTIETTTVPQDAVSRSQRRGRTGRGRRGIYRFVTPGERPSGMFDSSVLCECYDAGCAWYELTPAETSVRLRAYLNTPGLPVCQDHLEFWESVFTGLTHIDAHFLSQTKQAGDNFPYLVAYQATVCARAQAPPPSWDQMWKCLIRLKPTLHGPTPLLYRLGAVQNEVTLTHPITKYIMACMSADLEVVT
Sequence of HCV NS3/4A protease genotype 1b (P26663 1658-1711): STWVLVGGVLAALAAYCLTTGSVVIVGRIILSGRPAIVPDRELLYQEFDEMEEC

`Cc1nc2ccccc2c2c1O[C@]1(CC2)C[C@H]2C(=O)N[C@]3(C(=O)NS(=O)(=O)C4(C)CC4)C[C@H]3/C=C\CCCCC[C@H](NC(=O)OC3CC(F)(F)C3(F)F)C(=O)N2C1` (stereo partly drawn) [Example 321, 2,2,3,3-tetrafluorocyclobutyl [(2R,6S,12Z,13aS,14aR,16aS)-5′-methyl-14a-{[(1-methylcyclopropyl)sulfonyl]carbamoyl}-5,16-dioxo-1,1′,2′,5,6,7,8,9,10,11,13a,14,14a,15,16,16a-hexadecahydrospiro[cyclopropa[e]pyrrolo[1,2-a][1,4]diazacyclopentadecine-2,3′-pyrano[2,3-c]quinolin]-6-yl]carbamate]: the EC50 (in general, the concentration needed to bring the measured effect to its halfway point) in the assay with HCV genotype 1b replicon came out at 7.16 nM. In assay [1], the IC50 (in general, the midpoint of a concentration-inhibition curve) is 0.03 nM.

Turning to `CC(C)(OC(=O)N[C@H]1CCCCC/C=C\[C@@H]2C[C@@]2(C(=O)NS(=O)(=O)C2(C)CC2)NC(=O)[C@@H]2C[C@]3(CCc4c(c(C5CC5)nc5ccc6c(c45)OCO6)O3)CN2C1=O)C(F)(F)F` [Example 322, 1,1,1-trifluoro-2-methylpropan-2-yl [(2R,6S,12Z,13aS,14aR,16aS)-7′-cyclopropyl-14a-{[(1-methylcyclopropyl)sulfonyl]carbamoyl}-5,16-dioxo-1,5,6,7,8,9,10,10′,11,11′,13a,14,14a,15,16,16a-hexadecahydrospiro[cyclopropa[e]pyrrolo[1,2-a][1,4]diazacyclopentadecine-2,9′-[1,3]dioxolo[4,5-f]pyrano[2,3-c]quinolin]-6-yl]carbamate], the EC50 in the assay on HCV genotype 1b replicon (Hepatitis C virus) turned out to be 6.92 nM. The same molecule yielded an IC50 in assay [1] of 0.073 nM.

With `CC1(S(=O)(=O)NC(=O)[C@@]23C[C@H]2/C=C\CCCCC[C@H](NC(=O)OC2CCCC2)C(=O)N2C[C@@]4(CCc5c(c(C6CC6)nc6ccc7c(c56)OCO7)O4)C[C@H]2C(=O)N3)CC1` [Example 323, cyclopentyl [(2R,6S,12Z,13aS,14aR,16aS)-7′-cyclopropyl-14a-{[(1-methylcyclopropyl)sulfonyl]carbamoyl}-5,16-dioxo-1,5,6,7,8,9,10,10′,11,11′,13a,14,14a,15,16,16a-hexadecahydrospiro[cyclopropa[e]pyrrolo[1,2-a][1,4]diazacyclopentadecine-2,9′-[1,3]dioxolo[4,5-f]pyrano[2,3-c]quinolin]-6-yl]carbamate], the EC50 with HCV genotype 1b replicon (Hepatitis C virus) came to 11.4 nM. Further, the IC50 in assay [1] worked out at 0.012 nM.

For `CC(C)(C)COC(=O)N[C@H]1CCCCC/C=C\[C@@H]2C[C@@]2(C(=O)NS(=O)(=O)C2(C)CC2)NC(=O)[C@@H]2C[C@]3(CCc4c(c(C5CC5)nc5ccc6c(c45)OCO6)O3)CN2C1=O` [Example 324, 2,2-dimethylpropyl [(2R,6S,12Z,13aS,14aR,16aS)-7′-cyclopropyl-14a-{[(1-methylcyclopropyl)sulfonyl]carbamoyl}-5,16-dioxo-1,5,6,7,8,9,10,10′,11,11′,13a,14,14a,15,16,16a-hexadecahydrospiro[cyclopropa[e]pyrrolo[1,2-a][1,4]diazacyclopentadecine-2,9′-[1,3]dioxolo[4,5-f]pyrano[2,3-c]quinolin]-6-yl]carbamate], the EC50 with HCV genotype 1b replicon (Hepatitis C virus) was 3.62 nM. Further, the IC50 in assay [1] is 0.022 nM.

Regarding `CCCOC(=O)N[C@H]1CCCCC/C=C\[C@@H]2C[C@@]2(C(=O)NS(=O)(=O)C2(C)CC2)NC(=O)[C@@H]2C[C@]3(CCc4c(c(C(F)F)nc5ccccc45)O3)CN2C1=O` [Example 325, propyl [(2R,6S,12Z,13aS,14aR,16aS)-5′-(difluoromethyl)-14a-{[(1-methylcyclopropyl)sulfonyl]carbamoyl}-5,16-dioxo-1,1′,2′,5,6,7,8,9,10,11,13a,14,14a,15,16,16a-hexadecahydrospiro[cyclopropa[e]pyrrolo[1,2-a][1,4]diazacyclopentadecine-2,3′-pyrano[2,3-c]quinolin]-6-yl]carbamate], in the assay with HCV genotype 1b replicon (Hepatitis C virus), the EC50 worked out at 3.23 nM. The molecule further yielded an IC50 in assay [1] of 0.013 nM.

Consider `Cc1nc2ccccc2c2c1O[C@]1(CC2)C[C@H]2C(=O)N[C@]3(C(=O)NS(=O)(=O)C4(C)CC4)C[C@H]3/C=C\CCCCC[C@H](NC(=O)OC3(C(F)(F)F)CCCC3)C(=O)N2C1` [Example 326, 1-(trifluoromethyl)cyclopentyl [(2R,6S,12Z,13aS,14aR,16aS)-5′-methyl-14a-{[(1-methylcyclopropyl)sulfonyl]carbamoyl}-5,16-dioxo-1,1′,2′,5,6,7,8,9,10,11,13a,14,14a,15,16,16a-hexadecahydrospiro[cyclopropa[e]pyrrolo[1,2-a][1,4]diazacyclopentadecine-2,3′-pyrano[2,3-c]quinolin]-6-yl]carbamate], for which the EC50 with HCV genotype 1b replicon (Hepatitis C virus) is 1.11 nM. Further, 0.023 nM corresponded to half-maximal inhibition in assay [1] (IC50).

On to `Cc1nc2cc(F)ccc2c2c1O[C@]1(CC2)C[C@H]2C(=O)N[C@]3(C(=O)NS(=O)(=O)C4(C)CC4)C[C@H]3/C=C\CCCCC[C@H](NC(=O)OC3CCCC3)C(=O)N2C1` [Example 327, cyclopentyl [(2R,6S,12Z,13aS,14aR,16aS)-8′-fluoro-5′-methyl-14a-{[(1-methylcyclopropyl)sulfonyl]carbamoyl}-5,16-dioxo-1,1′,2′,5,6,7,8,9,10,11,13a,14,14a,15,16,16a-hexadecahydrospiro[cyclopropa[e]pyrrolo[1,2-a][1,4]diazacyclopentadecine-2,3′-pyrano[2,3-c]quinolin]-6-yl]carbamate], for which, in the assay with HCV genotype 1b replicon (Hepatitis C virus, K+ salt), the EC50 amounted to 3.61 nM. Further, in assay [1] (K+ salt), the IC50 was 0.026 nM.

As to `Cc1nc2cc(F)ccc2c2c1O[C@]1(CC2)C[C@H]2C(=O)N[C@]3(C(=O)NS(=O)(=O)C4(C)CC4)C[C@H]3/C=C\CCCCC[C@H](NC(=O)OC(C)(C)C(F)(F)F)C(=O)N2C1` [Example 328, 1,1,1-trifluoro-2-methylpropan-2-yl [(2R, 6S,12Z,13aS,14aR,16aS)-8′-fluoro-5′-methyl-14a-{[(1-methylcyclopropyl)sulfonyl]carbamoyl}-5,16-dioxo-1,1′,2′,5,6,7,8,9,10,11,13a,14,14a,15,16,16a-hexadecahydrospiro[cyclopropa[e]pyrrolo[1,2-a][1,4]diazacyclopentadecine-2,3′-pyrano[2,3-c]quinolin]-6-yl]carbamate], the EC50 in the assay on HCV genotype 1b replicon (Hepatitis C virus, K+ salt) amounted to 47 nM. For the same molecule, the IC50 in assay [1] (K+ salt) is 0.348 nM.

Consider `CCOC(=O)N[C@H]1CCCCC/C=C\[C@@H]2C[C@@]2(C(=O)NS(=O)(=O)C2(C)CC2)NC(=O)[C@@H]2C[C@]3(CCc4c(c(C(F)F)nc5ccccc45)O3)CN2C1=O` [Example 329, ethyl [(2R,6S,12Z,13aS,14aR,16aS)-5′-(difluoromethyl)-14a-{[(1-methylcyclopropyl)sulfonyl]carbamoyl}-5,16-dioxo-1,1′,2′,5,6,7,8,9,10,11,13a,14,14a,15,16,16a-hexadecahydrospiro[cyclopropa[e]pyrrolo[1,2-a][1,4]diazacyclopentadecine-2,3′-pyrano[2,3-c]quinolin]-6-yl]carbamate], for which, in the assay on HCV genotype 1b replicon (Hepatitis C virus), the EC50 stood at 12.2 nM. This molecule also registered an IC50 in assay [1] of 0.032 nM.

`CC(C)(C)OC(=O)N[C@H]1CCCCC/C=C\[C@@H]2C[C@@]2(C(=O)NS(=O)(=O)C2(C)CC2)NC(=O)[C@@H]2C[C@]3(CCc4c(c(C(F)F)nc5ccc(Cl)cc45)O3)CN2C1=O` [Example 331, tert-butyl [(2R,6S,12Z,13aS,14aR,16aS)-9′-chloro-5′-(difluoromethyl)-14a-{[(1-methylcyclopropyl)sulfonyl]carbamoyl}-5,16-dioxo-1,1′,2′,5,6,7,8,9,10,11,13a,14,14a,15,16,16a-hexadecahydrospiro[cyclopropa[e]pyrrolo[1,2-a][1,4]diazacyclopentadecine-2,3′-pyrano[2,3-c]quinolin]-6-yl]carbamate]: the EC50 in the assay with HCV genotype 1b replicon (Hepatitis C virus) turned out to be 6.71 nM. Further, the IC50 in assay [1] is 0.01 nM.

Consider `Cc1nc2ccc(C3CC3)cc2c2c1O[C@]1(CC2)C[C@H]2C(=O)N[C@]3(C(=O)NS(=O)(=O)C4(C)CC4)C[C@H]3/C=C\CCCCC[C@H](NC(=O)OC(C)(C)C)C(=O)N2C1` [Example 332, tert-butyl [(2R,6S,12Z,13aS,14aR,16aS)-9′-cyclopropyl-5′-methyl-14a-{[(1-methylcyclopropyl)sulfonyl]carbamoyl}-5,16-dioxo-1,1′,2′,5,6,7,8,9,10,11,13a,14,14a,15,16,16a-hexadecahydrospiro[cyclopropa[e]pyrrolo[1,2-a][1,4]diazacyclopentadecine-2,3′-pyrano[2,3-c]quinolin]-6-yl]carbamate], for which the EC50 with HCV genotype 1b replicon (Hepatitis C virus) is 2.69 nM. In addition, half-maximal inhibition in assay [1] (IC50) was put at 0.017 nM.

With `Cc1nc2ccc(Cl)cc2c2c1O[C@]1(CC2)C[C@H]2C(=O)N[C@]3(C(=O)NS(=O)(=O)C4(C)CC4)C[C@H]3/C=C\CCCCC[C@H](NC(=O)OC(C)(C)C(F)(F)F)C(=O)N2C1` [Example 333, 1,1,1-trifluoro-2-methylpropan-2-yl [(2R,6S,12Z,13aS,14aR,16aS)-9′-chloro-5′-methyl-14a-{[(1-methylcyclopropyl)sulfonyl]carbamoyl}-5,16-dioxo-1,1′,2′,5,6,7,8,9,10,11,13a,14,14a,15,16,16a-hexadecahydrospiro[cyclopropa[e]pyrrolo[1,2-a][1,4]diazacyclopentadecine-2,3′-pyrano[2,3-c]quinolin]-6-yl]carbamate], the EC50 with HCV genotype 1b replicon (Hepatitis C virus) turned out to be 10.3 nM. Further, in assay [1], the IC50 was determined as 0.01 nM.
